Source: PubChem BioAssay AID192 (DTP/NCI, 2004)
Where “and” joins values, the source holds several entries; their conditions need not be identical. Identical values can stand only once. Inconclusive results and toxic doses are left out. Square brackets hold non-standard residues; d marks the D form. Peptide text beside a SMILES is read from it. ξ: configuration not given here. ξE = NC(CCC(=O)O)C(=O)O

Test system: BDF1 mice, B16 melanoma ip, median survival T/C
Test: NCI In Vivo Anticancer Drug Screen. Data for tumor model B16 Melanoma (intraperitoneal) in B6D2F1 (BDF1) mice
Settings: endpoint: median survival time, higher = longer survival
Method in brief: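 Antitumor activity is assessed in mice bearing a transplanted tumor, with survival or tumor size compared against vehicle-dosed controls and expressed as T/C.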

[1] = dose: 12.5 mg/kg/injection, schedule: Q01DX009 (ip), vehicle: Klucel (hydroxypropylcellulose) (HPC)
[2] = dose: 25.0 mg/kg/injection, schedule: Q01DX009 (ip), vehicle: Klucel (hydroxypropylcellulose) (HPC)
[3] = dose: 100.0 mg/kg/injection, schedule: Q01DX009 (ip), vehicle: Klucel (hydroxypropylcellulose) (HPC)
[4] = dose: 200.0 mg/kg/injection, schedule: Q01DX009 (ip), vehicle: Klucel (hydroxypropylcellulose) (HPC)
[5] = dose: 400.0 mg/kg/injection, schedule: Q01DX009 (ip), vehicle: Klucel (hydroxypropylcellulose) (HPC)
[6] = dose: 50.0 mg/kg/injection, schedule: Q01DX009 (ip), vehicle: saline with Tween-80
[7] = dose: 100.0 mg/kg/injection, schedule: Q01DX009 (ip), vehicle: saline with Tween-80

Structure (SMILES): CO[C@@]12[C@H](COC(N)=O)C3=C(C(=O)C(C)=C(N)C3=O)N1C[C@@H]1N[C@@H]12
- T/C (dose: 0.06 mg/kg/injection, schedule: Q01DX009 (ip), vehicle: Klucel (hydroxypropylcellulose) (HPC)): 113 % of control
- T/C (dose: 0.1 mg/kg/injection, schedule: Q04DX003 (ip), vehicle: saline): 99 % of control
- T/C (dose: 0.13 mg/kg/injection, schedule: Q01DX001 (ip), vehicle: clinical formulation): 105 % of control
- T/C (dose: 0.13 mg/kg/injection, schedule: Q01DX009 (ip), vehicle: Klucel (hydroxypropylcellulose) (HPC)): 114 % of control
- T/C (dose: 0.13 mg/kg/injection, schedule: Q01DX009 (ip), vehicle: saline): 117 % of control
- T/C (dose: 0.2 mg/kg/injection, schedule: Q04DX003 (ip), vehicle: saline): 113 % of control
- T/C (dose: 0.22 mg/kg/injection, schedule: Q01DX009 (ip), vehicle: saline): 103 % of control
- T/C (dose: 0.25 mg/kg/injection, schedule: Q01DX001 (ip), vehicle: clinical formulation): 114 % of control
- T/C (dose: 0.25 mg/kg/injection, schedule: Q01DX009 (ip), vehicle: Klucel (hydroxypropylcellulose) (HPC)): 110 % of control
- T/C (dose: 0.25 mg/kg/injection, schedule: Q01DX009 (ip), vehicle: saline): 103 % of control
- T/C (dose: 0.36 mg/kg/injection, schedule: Q01DX009 (ip), vehicle: saline): 117 % of control
- T/C (dose: 0.5 mg/kg/injection, schedule: Q01DX001 (ip), vehicle: clinical formulation): 123 % of control
- T/C (dose: 0.5 mg/kg/injection, schedule: Q01DX009 (ip), vehicle: Klucel (hydroxypropylcellulose) (HPC)): 113 % of control
- T/C (dose: 0.5 mg/kg/injection, schedule: Q01DX009 (ip), vehicle: saline): 159 % of control
- T/C (dose: 0.54 mg/kg/injection, schedule: Q01DX009 (ip), vehicle: saline): 154 % of control and 217 % of control
- T/C (dose: 0.54 mg/kg/injection, schedule: Q01DX010 (ip), vehicle: saline): 114 % of control
- T/C (dose: 0.6 mg/kg/injection, schedule: Q01DX009 (ip), vehicle: saline): 151 % of control
- T/C (dose: 0.9 mg/kg/injection, schedule: Q01DX010 (ip), vehicle: saline): 107 % of control
- T/C (dose: 1.0 mg/kg/injection, schedule: Q01DX007 (ip), vehicle: saline): 152 % of control
- T/C (dose: 1.0 mg/kg/injection, schedule: Q01DX009 (ip), vehicle: Klucel (hydroxypropylcellulose) (HPC)): 181 % of control and 189 % of control
- T/C (dose: 1.0 mg/kg/injection, schedule: Q01DX009 (ip), vehicle: saline sonified): 169 % of control
- T/C (dose: 1.0 mg/kg/injection, schedule: Q04DX003 (ip), vehicle: clinical formulation): 159 % of control
- T/C (dose: 1.5 mg/kg/injection, schedule: Q01DX010 (ip), vehicle: saline): 101 % of control
- T/C (dose: 1.5 mg/kg/injection, schedule: Q04DX003 (ip), vehicle: clinical formulation): 151 % of control
- T/C (dose: 1.5 mg/kg/injection, schedule: Q04DX003 (ip), vehicle: saline): 164 % of control
- T/C (dose: 1.6 mg/kg/injection, schedule: Q04DX003 (ip), vehicle: saline): 172 % of control
- T/C (dose: 1.67 mg/kg/injection, schedule: Q01DX009 (ip), vehicle: saline): 151 % of control
- T/C (dose: 2.0 mg/kg/injection, schedule: Q01DX001 (ip), vehicle: clinical formulation): 153 % of control
- T/C (dose: 2.0 mg/kg/injection, schedule: Q04DX003 (ip), vehicle: clinical formulation): 236 % of control
- T/C (dose: 2.5 mg/kg/injection, schedule: Q01DX009 (ip), vehicle: saline): 34 % of control and 57 % of control
- T/C (dose: 2.5 mg/kg/injection, schedule: Q01DX010 (ip), vehicle: saline): 105 % of control
- T/C (dose: 3.0 mg/kg/injection, schedule: Q04DX003 (ip), vehicle: clinical formulation): 260 % of control
- T/C (dose: 3.0 mg/kg/injection, schedule: Q04DX003 (ip), vehicle: saline): 193 % of control
- T/C (dose: 3.2 mg/kg/injection, schedule: Q04DX003 (ip), vehicle: saline): 231 % of control
- T/C (dose: 4.0 mg/kg/injection, schedule: Q01DX007 (ip), vehicle: saline): 57 % of control

Structure (SMILES): CCOC(=O)/C=C(\CBr)OC
- T/C [1]: 105 % of control
- T/C [2]: 93 % of control

Structure (SMILES): CCOC(=O)c1[nH]cnc1/N=N/N(C)CCO
- T/C (dose: 12.5 mg/kg/injection, schedule: Q01DX009 (ip), vehicle: carboxymethylcellulose (CMC)): 104 % of control
- T/C (dose: 25.0 mg/kg/injection, schedule: Q01DX009 (ip), vehicle: carboxymethylcellulose (CMC)): 118 % of control
- T/C (dose: 50.0 mg/kg/injection, schedule: Q01DX009 (ip), vehicle: carboxymethylcellulose (CMC)): 95 % of control
- T/C (dose: 100.0 mg/kg/injection, schedule: Q01DX009 (ip), vehicle: carboxymethylcellulose (CMC)): 100 % of control
- T/C (dose: 200.0 mg/kg/injection, schedule: Q01DX009 (ip), vehicle: carboxymethylcellulose (CMC)): 113 % of control

Structure (SMILES): NCC(=O)NCC(=O)NC(CCC(=O)O)C(=O)O (stereo not drawn) (H-Gly-Gly-[ξE]-OH)
- T/C (dose: 50.0 mg/kg/injection, schedule: Q01DX009 (ip), vehicle: saline): 101 % of control
- T/C (dose: 100.0 mg/kg/injection, schedule: Q01DX009 (ip), vehicle: saline): 97 % of control
- T/C (dose: 200.0 mg/kg/injection, schedule: Q01DX009 (ip), vehicle: saline): 94 % of control
- T/C (dose: 400.0 mg/kg/injection, schedule: Q01DX009 (ip), vehicle: saline): 94 % of control

Structure (SMILES): O=c1[nH]cc(F)c(=O)[nH]1.[Tl]
- T/C (dose: 1.25 mg/kg/injection, schedule: Q01DX009 (ip), vehicle: water): 95 % of control
- T/C (dose: 2.5 mg/kg/injection, schedule: Q01DX009 (ip), vehicle: water): 100 % of control
- T/C (dose: 5.0 mg/kg/injection, schedule: Q01DX009 (ip), vehicle: water): 102 % of control
- T/C (dose: 10.0 mg/kg/injection, schedule: Q01DX009 (ip), vehicle: water): 113 % of control

Structure (SMILES): O=C(Cl)c1ccccc1S(=O)(=O)N(CCOc1ccccc1)c1ccccc1
- T/C [3]: 90 % of control
- T/C [4]: 96 % of control
- T/C [5]: 87 % of control

Structure (SMILES): CCNNC(=O)[C@@H]1[C@H](c2cc(OC)c(OC)c(OC)c2)c2cc3c(cc2[C@H](O)[C@H]1CO)OCO3
- T/C [6]: 94 % of control
- T/C [7]: 86 % of control

Structure (SMILES): CC12CCC(O)CC1CCC1C2CCC2(C)C(C3=CC(=O)OC3)CCC12O (centres undefined)
- T/C (dose: 2.0 mg/kg/injection, schedule: Q01DX009 (ip), vehicle: Klucel (hydroxypropylcellulose) (HPC)): 105 % of control
- T/C (dose: 4.0 mg/kg/injection, schedule: Q01DX009 (ip), vehicle: Klucel (hydroxypropylcellulose) (HPC)): 96 % of control
- T/C (dose: 8.0 mg/kg/injection, schedule: Q01DX009 (ip), vehicle: Klucel (hydroxypropylcellulose) (HPC)): 98 % of control

Structure (SMILES): O=C(CC(O)(C(F)(F)F)C(F)(F)F)CC(O)(C(F)(F)F)C(F)(F)F
- T/C (dose: 1.25 mg/kg/injection, schedule: Q04DX003 (ip), vehicle: saline): 116 % of control
- T/C (dose: 2.5 mg/kg/injection, schedule: Q04DX003 (ip), vehicle: saline): 122 % of control and 116 % of control

Structure (SMILES): CC(=O)CC(=O)Nc1cccc(C)c1
- T/C [3]: 105 % of control
- T/C [4]: 100 % of control
- T/C [5]: 92 % of control

Structure (SMILES): CCNC(C)(C)C(SSS)c1ccco1 (centres undefined)
- T/C [1]: 98 % of control
- T/C [2]: 94 % of control
- T/C (dose: 50.0 mg/kg/injection, schedule: Q01DX009 (ip), vehicle: Klucel (hydroxypropylcellulose) (HPC)): 104 % of control

Structure (SMILES): OCc1ccc[n+](CCc2c[nH]c3ccccc23)c1
- T/C (dose: 25.0 mg/kg/injection, schedule: Q01DX009 (ip), vehicle: saline with Tween-80): 102 % of control
- T/C [6]: 99 % of control
- T/C [7]: 102 % of control
